Laboratory results as given in PubChem BioAssay (NCI).
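Grown in 96-well plates, cells were treated for 48 hours with each compound at five concentrations. Insufficient inhibition: endpoint recorded as highest concentration tested. At the TGI there is no net growth.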

Tests used:
Assay in all cases: growth of human tumour cells (NCI), 48 h
[1] = test system: 786-0 renal
[2] = test system: A498 renal
[3] = test system: A549 NSCLC
[4] = test system: ACHN renal
[5] = test system: CCRF-CEM leukemia
[6] = test system: COLO 205 colon
[7] = test system: DLD-1 colon
[8] = test system: DMS 114 small cell lung
[9] = test system: DMS 273 small cell lung
[10] = test system: EKVX NSCLC
[11] = test system: HCC-2998 colon
[12] = test system: HCT-116 colon
[13] = test system: HCT-15 colon
[14] = test system: HL-60(TB) leukemia
[15] = test system: HOP-18 NSCLC
[16] = test system: HOP-62 NSCLC
[17] = test system: HOP-92 NSCLC
[18] = test system: HT29 colon
[19] = test system: IGROV1 ovarian
[20] = test system: K-562 leukemia
[21] = test system: KM20L2 colon
[22] = test system: LXFL 529 NSCLC
[23] = test system: M14 melanoma
[24] = test system: M19-MEL melanoma
[25] = test system: MALME-3M melanoma
[26] = test system: MOLT-4 leukemia
[27] = test system: NCI-H226 lung
[28] = test system: NCI-H23 lung
[29] = test system: NCI-H522 lung
[30] = test system: OVCAR-4 ovarian
[31] = test system: OVCAR-8 ovarian
[32] = test system: RPMI-8226 leukemia
[33] = test system: RXF 393 renal
[34] = test system: SF-268 CNS
[35] = test system: SF-295 CNS
[36] = test system: SF-539 CNS
[37] = test system: SK-MEL-28 melanoma
[38] = test system: SK-MEL-5 melanoma
[39] = test system: SK-OV-3 ovarian
[40] = test system: SN12C renal
[41] = test system: SNB-19 CNS
[42] = test system: SNB-75 CNS
[43] = test system: SNB-78 CNS
[44] = test system: SR leukemia
[45] = test system: SW-620 colon
[46] = test system: U251 CNS
[47] = test system: UACC-257 melanoma
[48] = test system: UACC-62 melanoma
[49] = test system: UO-31 renal
[50] = test system: XF 498 CNS
[51] = test system: CAKI-1 renal
[52] = test system: KM12 colon
[53] = test system: LOX IMVI melanoma
[54] = test system: NCI-H460 lung
[55] = test system: OVCAR-3 ovarian
[56] = test system: OVCAR-5 ovarian
[57] = test system: SK-MEL-2 melanoma
[58] = test system: TK-10 renal

For `COc1ccc(-c2cc(=O)c3c(O)c(OC)c(O)c(OC)c3o2)cc1OC`, the TGI [1] was > 100 µM, the TGI [2] was > 100 µM and the TGI [3] was > 100 µM. The TGI [4] was > 100 µM, the TGI [5] was > 100 µM and the TGI [6] was > 100 µM. The TGI [7] was > 100 µM, the TGI [8] was > 100 µM and the TGI [9] was > 100 µM. The TGI [10] was > 100 µM, the TGI [11] was > 100 µM and the TGI [12] was > 100 µM. The TGI [13] was > 100 µM, the TGI [14] was > 100 µM and the TGI [15] was > 100 µM. For the same compound, the TGI [16] was > 100 µM, the TGI [17] was > 100 µM and the TGI [18] was > 100 µM. The TGI [19] was > 100 µM, the TGI [20] was > 100 µM and the TGI [21] was > 100 µM. For the same compound, the TGI [22] was > 100 µM, the TGI [23] was > 100 µM and the TGI [24] was > 100 µM. The TGI [25] was > 100 µM, the TGI [26] was > 100 µM and the TGI [27] was > 100 µM. For the same compound, the TGI [28] was > 100 µM, the TGI [29] was 42.8 µM and the TGI [30] was > 100 µM. For the same compound, the TGI [31] was > 100 µM, the TGI [32] was > 100 µM and the TGI [33] was 55.6 µM. For the same compound, the TGI [34] was > 100 µM, the TGI [35] was > 100 µM and the TGI [36] was > 100 µM. For the same compound, the TGI [37] was > 100 µM, the TGI [38] was > 100 µM and the TGI [39] was > 100 µM. For the same compound, the TGI [40] was > 100 µM, the TGI [41] was > 100 µM and the TGI [42] was > 100 µM. For the same compound, the TGI [43] was > 100 µM, the TGI [44] was > 100 µM and the TGI [45] was > 100 µM. The TGI [46] was > 100 µM, the TGI [47] was > 100 µM and the TGI [48] was > 100 µM. The TGI [49] was > 100 µM and the TGI [50] was > 100 µM.
In the case of `COc1ccc(C23c4ccc(OC)cc4CC2(c2ccc([N+](=O)[O-])cc2)Cc2cc(OC)ccc23)cc1` (stereo unspecified), the TGI [1] was > 100 µM, the TGI [2] was > 100 µM and the TGI [3] was > 100 µM. The TGI [4] was > 100 µM, the TGI [51] was > 100 µM and the TGI [5] was > 100 µM. For the same compound, the TGI [6] was > 52.1 µM, the TGI [7] was > 100 µM and the TGI [8] was > 100 µM. For the same compound, the TGI [9] was > 100 µM, the TGI [10] was > 37.9 µM and the TGI [11] was > 73 µM. The TGI [12] was > 100 µM, the TGI [13] was > 100 µM and the TGI [14] was > 100 µM. For the same compound, the TGI [15] was 30.8 µM, the TGI [16] was > 88 µM and the TGI [17] was > 44.6 µM. For the same compound, the TGI [18] was > 100 µM, the TGI [19] was > 81.6 µM and the TGI [20] was > 100 µM. The TGI [52] was > 100 µM, the TGI [21] was > 44.9 µM and the TGI [53] was > 100 µM. The TGI [22] was > 100 µM, the TGI [23] was > 100 µM and the TGI [24] was > 88.2 µM. The TGI [25] was > 68.4 µM, the TGI [26] was > 69.2 µM and the TGI [27] was > 100 µM. The TGI [28] was > 79.3 µM, the TGI [54] was > 100 µM and the TGI [29] was > 100 µM. For the same compound, the TGI [55] was > 100 µM, the TGI [30] was > 100 µM and the TGI [56] was > 85.4 µM. For the same compound, the TGI [31] was > 100 µM, the TGI [32] was > 100 µM and the TGI [34] was > 56.9 µM. The TGI [35] was > 100 µM, the TGI [36] was > 74.5 µM and the TGI [57] was > 100 µM. For the same compound, the TGI [37] was > 55.1 µM, the TGI [38] was > 40.2 µM and the TGI [39] was > 100 µM. For the same compound, the TGI [40] was > 100 µM, the TGI [41] was > 100 µM and the TGI [42] was > 100 µM. The TGI [43] was > 100 µM, the TGI [45] was > 100 µM and the TGI [58] was > 100 µM. The TGI [46] was > 100 µM, the TGI [47] was > 100 µM and the TGI [48] was > 41.7 µM. The TGI [49] was > 77.4 µM and the TGI [50] was > 100 µM.
